In the supplement of paper PMC10307832:

Experiments:
Assay in all cases: relative viability (nuclei count vs DMSO), 5 days (fraction); higher = more cells survive
Vismodegib + Vorinostat = compound: CS(=O)(=O)c1ccc(C(=O)Nc2ccc(Cl)c(-c3ccccn3)c2)c(Cl)c1 [Vismodegib] + O=C(CCCCCCC(=O)Nc1ccccc1)NO [Vorinostat] (partner 1 µM)
In short: (§1)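 Cells from lung cancer lines were seeded into 1536-well plates and, one day later, dosed by pin tool. Treatments were either a single drug or a fixed dose of an anchor drug with five library-drug doses (not always all listed) in √10 steps. After 5 days, nuclei were stained in a one-step fixation (final 0.05% Triton X-100, 1% formaldehyde, 1 ug/ml Hoechst) and counted on 4× images, and relative viability is the treated-to-vehicle nuclei ratio, as the median of duplicate plates.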

Vismodegib + Decitabine = compound: CS(=O)(=O)c1ccc(C(=O)Nc2ccc(Cl)c(-c3ccccn3)c2)c(Cl)c1 [Vismodegib] + Nc1ncn([C@H]2C[C@H](O)[C@@H](CO)O2)c(=O)n1 [Decitabine] (partner 2 µM)
In short: as §1

Vismodegib + Crizotinib = compound: CS(=O)(=O)c1ccc(C(=O)Nc2ccc(Cl)c(-c3ccccn3)c2)c(Cl)c1 [Vismodegib] + C[C@@H](Oc1cc(-c2cnn(C3CCNCC3)c2)cnc1N)c1c(Cl)ccc(F)c1Cl [Crizotinib] (partner 1 µM)
In short: as §1

Ruxolitinib + Vorinostat = compound: N#CC[C@H](C1CCCC1)n1cc(-c2ncnc3[nH]ccc23)cn1 [Ruxolitinib] + O=C(CCCCCCC(=O)Nc1ccccc1)NO [Vorinostat] (partner 1 µM)
In short: as §1

Cell Line	relative viability (Vismodegib + Vorinostat; first compound 0.08 µM)	relative viability (Vismodegib + Vorinostat; first compound 0.253 µM)	relative viability (Vismodegib + Vorinostat; first compound 0.8 µM)	relative viability (Vismodegib + Vorinostat; first compound 2.53 µM)	relative viability (Vismodegib + Vorinostat; first compound 8 µM)	relative viability (Vismodegib + Decitabine; first compound 0.08 µM)	relative viability (Vismodegib + Decitabine; first compound 0.253 µM)	relative viability (Vismodegib + Decitabine; first compound 0.8 µM)	relative viability (Vismodegib + Decitabine; first compound 2.53 µM)	relative viability (Vismodegib + Decitabine; first compound 8 µM)	relative viability (Vismodegib + Crizotinib; first compound 0.08 µM)	relative viability (Vismodegib + Crizotinib; first compound 0.253 µM)	relative viability (Vismodegib + Crizotinib; first compound 0.8 µM)	relative viability (Vismodegib + Crizotinib; first compound 2.53 µM)	relative viability (Vismodegib + Crizotinib; first compound 8 µM)	relative viability (Ruxolitinib + Vorinostat; first compound 0.08 µM)	relative viability (Ruxolitinib + Vorinostat; first compound 0.253 µM)	relative viability (Ruxolitinib + Vorinostat; first compound 0.8 µM)	relative viability (Ruxolitinib + Vorinostat; first compound 2.53 µM)	relative viability (Ruxolitinib + Vorinostat; first compound 8 µM)
NCI-H2126	0.704	0.744	0.695	0.72	0.663	0.598	0.544	0.592	0.549	0.611	1.11	0.96	1.08	0.991	1.04	0.771	0.755	0.853	0.843	0.847
NCI-H647	0.586	0.424	0.63	0.511	0.654	0.38	0.327	0.38	0.385	0.409	1.07	1.13	1.11	0.969	1.07	0.694	0.729	0.683	0.538	0.286
NCI-H322M	0.925	0.842	0.848	0.851	0.855	0.694	0.651	0.661	0.822	0.635	0.858	0.869	0.849	0.879	1.08	0.951	1.01	1.05	1.3	1.4
NCI-H358	0.831	0.677	0.696	0.68	0.728	0.21	0.228	0.21	0.256	0.225	0.596	0.479	0.546	0.551	0.579	0.624	0.645	0.673	0.509	0.417
LK-2	0.246	0.31	0.294	0.286	0.239	0.356	0.253	0.282	0.283	0.28	0.247	0.248	0.215	0.203	0.239	0.265	0.26	0.254	0.287	0.209
NCI-H1993	0.854	0.69	0.728	0.779	0.794	0.524	0.68	0.588	0.587	0.543	0.995	0.958	0.768	0.851	0.906	0.81	0.754	0.102	0.822	0.75
A-427	0.923	0.862	0.814	0.872	0.84	0.515	0.569	0.546	0.499	0.582	0.833	0.838	0.927	0.857	0.882	0.906	0.879	0.9	0.974	0.841
NCI-H2347	0.553	0.616	0.519	0.711	0.507	0.645	0.603	0.593	0.646	0.612	0.691	0.713	0.64	0.582	0.656	0.68	0.546	0.568	0.566	0.622
ChaGo-K-1	0.761	0.739	0.799	0.754	0.708	0.503	0.508	0.504	0.505	0.561	1.19	1.09	1.13	1.06	1.22	0.771	0.764	0.707	0.62	0.637
BEN	0.581	0.527	0.578	0.531	0.528	0.684	0.691	0.648	0.697	0.782	0.779	0.927	0.807	0.934	0.986	0.524	0.557	0.653	0.519	0.586
NCI-H23	0.622	0.568	0.496	0.434	0.571	0.362	0.321	0.329	0.323	0.358	0.489	0.54	0.597	0.553	0.537	0.668	0.628	0.763	0.642	0.43
LU99A	0.409	0.469	0.498	0.469	0.509	0.944	0.844	0.887	0.835	0.781	0.664	0.49	0.575	0.491	0.624	0.537	0.482	0.542	0.416	0.426
ABC-1	1.55	0.987	0.873	1.23	1.24	1.06	1.01	0.999	1.2	1.01	0.6	0.827	1.12	0.993	0.958	–	1.18	1.4	0.825	0.907
SW 1573	0.77	0.564	0.895	0.636	0.679	–	0.425	0.509	0.519	0.615	0.895	0.755	0.827	0.774	0.956	0.927	1.08	0.995	0.584	0.727
NCI-H2009	0.724	0.921	0.723	0.708	0.722	0.363	0.377	0.366	0.416	0.344	0.94	1.05	1.13	1.01	1.12	0.715	0.71	0.722	0.631	0.507
HCC-15	0.844	0.774	0.86	0.781	0.859	0.635	0.659	0.687	0.668	0.576	0.782	0.859	0.889	0.879	0.83	0.903	0.862	0.864	0.741	0.776
EPLC-272H	0.398	0.368	0.49	0.329	0.509	0.375	0.358	0.358	0.362	0.341	0.899	0.849	0.856	0.867	1.04	0.586	0.447	0.463	0.249	0.337

Cell Line	relative viability (Vismodegib + Vorinostat; first compound 0.08 µM)	relative viability (Vismodegib + Vorinostat; first compound 0.253 µM)	relative viability (Vismodegib + Vorinostat; first compound 0.8 µM)	relative viability (Vismodegib + Vorinostat; first compound 2.53 µM)	relative viability (Vismodegib + Vorinostat; first compound 8 µM)	relative viability (Vismodegib + Decitabine; first compound 0.08 µM)	relative viability (Vismodegib + Decitabine; first compound 0.253 µM)	relative viability (Vismodegib + Decitabine; first compound 0.8 µM)	relative viability (Vismodegib + Decitabine; first compound 2.53 µM)	relative viability (Vismodegib + Decitabine; first compound 8 µM)	relative viability (Vismodegib + Crizotinib; first compound 0.08 µM)	relative viability (Vismodegib + Crizotinib; first compound 0.253 µM)	relative viability (Vismodegib + Crizotinib; first compound 0.8 µM)	relative viability (Vismodegib + Crizotinib; first compound 2.53 µM)	relative viability (Vismodegib + Crizotinib; first compound 8 µM)	relative viability (Ruxolitinib + Vorinostat; first compound 0.08 µM)	relative viability (Ruxolitinib + Vorinostat; first compound 0.253 µM)	relative viability (Ruxolitinib + Vorinostat; first compound 0.8 µM)	relative viability (Ruxolitinib + Vorinostat; first compound 2.53 µM)	relative viability (Ruxolitinib + Vorinostat; first compound 8 µM)
HCC-78	0.425	0.403	0.453	0.492	0.42	0.561	0.736	0.661	0.698	0.786	0.307	0.351	0.286	0.351	0.347	0.412	0.455	0.429	0.439	0.395
LXF-289	0.787	0.724	0.846	0.731	0.629	0.324	0.414	0.369	0.363	0.431	0.806	0.772	0.816	0.745	0.781	0.744	0.818	0.793	0.714	0.705
NCI-H460	0.71	0.707	0.711	0.691	0.75	0.603	0.467	0.544	0.486	0.54	0.985	0.925	1.04	0.936	0.999	0.847	0.774	0.819	0.599	0.516
NCI-H2023	0.625	0.53	0.711	0.654	0.612	0.224	0.197	0.285	0.246	0.236	0.586	0.56	0.707	0.615	0.685	0.661	0.667	0.95	0.581	0.798
SK-LU-1	0.718	0.827	0.784	0.718	0.842	0.619	0.639	0.588	0.618	0.607	1.02	0.817	0.874	0.881	0.997	0.763	0.856	0.747	0.805	0.53
NCI-H1734	0.791	0.732	0.821	0.723	0.737	0.466	0.437	0.47	0.505	0.499	0.687	0.654	0.762	0.62	0.756	0.886	0.806	0.902	0.797	0.863
PC-3 [JPC-3]	0.858	0.548	0.802	0.924	0.896	0.863	0.838	0.904	0.814	0.864	0.93	0.991	0.964	0.93	0.956	–	0.778	0.809	0.875	0.696
HCC-827	0.878	0.903	0.909	0.774	0.861	0.326	0.333	0.34	0.302	0.353	0.893	0.888	0.985	0.908	0.887	–	0.871	0.767	0.751	0.84
NCI-H2405	0.958	0.85	1	1.02	1.06	0.739	0.801	0.693	0.712	0.741	0.851	0.86	0.807	0.784	0.83	1	0.957	1.05	1.19	0.743
HOP-62	0.681	0.591	0.535	0.58	0.469	0.227	0.22	0.208	0.22	0.183	0.991	0.905	0.867	0.503	0.908	0.606	0.59	0.688	0.594	0.685
LCLC-97TM1	0.731	0.64	0.656	0.632	0.42	0.214	0.25	0.351	0.229	0.223	–	–	0.418	–	0.355	0.741	0.604	0.734	0.722	0.63
NCI-H3122	0.986	0.994	0.994	1.09	0.992	0.469	0.499	0.512	0.423	0.323	0.307	0.286	0.255	0.295	0.268	0.886	1.12	1.13	0.962	1.02
PC-14	0.682	0.773	0.764	0.838	0.749	0.224	0.198	0.237	0.199	0.234	0.835	0.777	0.971	0.914	0.839	–	0.788	1.05	0.658	0.652
NCI-H2170	0.83	0.712	0.824	0.815	0.838	0.489	0.477	0.455	0.463	0.467	1.23	1.08	1.19	1.17	1.31	0.804	0.796	0.889	0.794	0.65
NCI-H1650	0.568	0.523	0.48	0.543	0.569	0.411	0.388	0.426	0.447	0.512	0.884	0.904	0.97	0.932	0.918	0.558	0.557	0.708	0.551	0.57
HCC-366	0.46	0.37	0.25	0.354	0.285	0.374	0.283	0.377	0.331	0.311	0.623	0.567	0.501	0.508	0.566	0.34	0.321	0.423	0.192	0.167
